Results as given in US20100203531A1, “PREDICTING RESPONSIVENESS TO TEMOZOLOMIDE” (priority 2007, published 2010).

Experiments:
Type in all cases: in vivo, human
[1] = test system: GBM22 / GS22 xenograft; assay: Orthotopic intracranial xenograft survival, GBM22 (GS22)
Experimental: (§1) In vivo sensitivity of GBM lines to TMZ: To address whether MGMT methylation or polypeptide expression status are predictive of TMZ responsiveness, the effects of TMZ therapy on survival were evaluated in the panel of xenografts using an orthotopic therapy model. Mice with established intracranial xenografts were treated with 66 mg/kg TMZ or placebo daily for 5 days by oral gavage. This TMZ dosing regimen provides the equivalent dose-exposure to TMZ as the standard adjuvant TMZ dosing regimen for GBM patients of 200 mg/m^2×5 days. All mice were followed until reaching a moribund state, and the relative prolongation of survival following TMZ treatment was calculated for each line relative to placebo treatment (Table 1). […] Further analysis of the relationship between TMZ responsiveness and MGMT methylation status in 17 xenograft lines was conducted by comparing the distribution of median survival prolongation results for methylation-positive and methylation-negative groups of xenografts. From this analysis, MGMT methylation was modestly associated with increased TMZ sensitivity (FIG. 2, p=0.039, two-sample rank sum test). In a similar analysis of MGMT polypeptide expression levels, high levels of MGMT polypeptide expression were invariably associated with relative TMZ resistance, and the absence of MGMT polypeptide expression was associated with significant TMZ sensitivity (r=−0.73, p=0.005). […] While p53, PTEN and EGFR function have been linked to TMZ sensitivity in some models, no correlation between genetic alterations of these genes and TMZ responsiveness was observed.
(§2) Orthotopic model: Therapy evaluations were conducted using an orthotopic tumor model as described elsewhere (Sarkaria et al., Clin Cancer Res, 12:2264-2271 (2006), Giannini et al., Neuro-Oncology, 7:164-176, (2005)). Athymic nude mice (NCI, Frederick, Md.) with established intracranial tumors were randomized into groups of 8 to 10 mice each and treatment was initiated 2 weeks before mice were expected to become moribund. TMZ was purchased from the Mayo Clinic Pharmacy, suspended in Ora-plus (Paddock Laboratories, Minneapolis. MN), and administered by oral gavage at 66 mg/kg for 5 days. Mice were observed daily and euthanized when moribund.
Statistical analysis: Survival distributions were estimated using the Kaplan-Meier method. The log rank test was used to compare survival across treatment groups. All GBM experiments were pooled and Classification and Regression Tree analysis (CART) was used to identify which CpG sites in the MS-PCR assay (CpG sites 78-82, 86-89) were predictive of overall survival in TMZ treated mice. The two-sample rank sum test was used to compare relative differences in survival relative to MGMT MS-PCR status or CpG89 methylation status. […]

[2] = test system: GBM38 xenograft; assay: Orthotopic intracranial xenograft survival, GBM38
Experimental: In vivo sensitivity of GBM lines to TMZ: To address whether MGMT methylation or polypeptide expression status are predictive of TMZ responsiveness, the effects of TMZ therapy on survival were evaluated in the panel of xenografts using an orthotopic therapy model. Mice with established intracranial xenografts were treated with 66 mg/kg TMZ or placebo daily for 5 days by oral gavage. This TMZ dosing regimen provides the equivalent dose-exposure to TMZ as the standard adjuvant TMZ dosing regimen for GBM patients of 200 mg/m^2×5 days. All mice were followed until reaching a moribund state, and the relative prolongation of survival following TMZ treatment was calculated for each line relative to placebo treatment (Table 1). […] Further analysis of the relationship between TMZ responsiveness and MGMT methylation status in 17 xenograft lines was conducted by comparing the distribution of median survival prolongation results for methylation-positive and methylation-negative groups of xenografts. From this analysis, MGMT methylation was modestly associated with increased TMZ sensitivity (FIG. 2, p=0.039, two-sample rank sum test). […]

[3] = test system: GBM43 xenograft; assay: Orthotopic intracranial xenograft survival, GBM43
Experimental: as §1
as §2, with “MN), and administered by oral gavage at 66 mg/kg for 5 days.” left out
Statistical analysis: Survival distributions were estimated using the Kaplan-Meier method. The log rank test was used to compare survival across treatment groups. All GBM experiments were pooled and Classification and Regression Tree analysis (CART) was used to identify which CpG sites in the MS-PCR assay (CpG sites 78-82, 86-89) were predictive of overall survival in TMZ treated mice. The two-sample rank sum test was used to compare relative differences in survival relative to MGMT MS-PCR status or CpG89 methylation status. Spearman's correlation coefficient was used to assess the association of relative median survival and protein expression levels of MGMT relative to 13-actin.

Cn1nnc2c(C(N)=O)ncn2c1=O [TMZ, Temozolomide]
Survival benefit ([1]; GBM22, prolongation of median survival relative to placebo, TMZ 66 mg/kg oral x5 days): 260% | TMZ median survival ([1]; GBM22 intracranial xenograft, nude mice, TMZ 66 mg/kg oral daily x5 days): 124 | Survival Prolongation ([1]; GS22, median survival relative to placebo, 66 mg/kg oral for 5 days (Table 3)): 260% | Temozolomide median survival ([1]; GS22 intracranial, athymic nude mice, 66 mg/kg oral gavage for 5 days (Table 3)): 155 | Survival benefit ([2]; GBM38, prolongation of median survival relative to placebo, TMZ 66 mg/kg oral x5 days): 45% | TMZ median survival ([2]; GBM38 intracranial xenograft, nude mice, TMZ 66 mg/kg oral daily x5 days): 80 | Survival Prolongation ([3]; GBM43, median survival relative to placebo, 66 mg/kg oral for 5 days (Table 3)): 87% | Survival benefit ([3]; GBM43, prolongation of median survival relative to placebo, TMZ 66 mg/kg oral x5 days): 87% | Survival benefit ([3]; GBM43 generation 6, TMZ 120 mg/kg for 5 days, intracranial): 104% | Survival benefit ([3]; GBM43 generation 10, TMZ 66 mg/kg for 5 days, intracranial): 83% | TMZ median survival ([3]; GBM43 intracranial xenograft, nude mice, TMZ 66 mg/kg oral daily x5 days): 43 | Temozolomide median survival ([3]; GBM43 intracranial, athymic nude mice, 66 mg/kg oral gavage for 5 days (Table 3)): 43
